Assay results from patent publication EP0226508A1, “Indolo[3,2-c]quinoline derivatives, process for their preparation and their anti-tumour activity” (priority 1985, dated 1987).

What was measured:
[1] = tested on: souris consanguines DBA₂ saines; assay: Acute toxicity, single intraperitoneal injection in healthy mice, mortality at day 7; type: in vivo; conditions: single i.p. injection, 50 mg/kg
[2] = tested on: lignée tumorale leucémie L 1210; assay: In vitro cytotoxic activity on L 1210 leukemia cell culture (inhibition of cell proliferation); type: cell-based; conditions: Mus musculus, L1210; L 1210 culture in exponential growth, 37°C, after 48 hours of contact; read-out: ID 50 (the source's name)
Description: 1) In vitro : (PAOLETTI et al., Chem. Biol. Interaction, 1979, 25, 45-58).
L'activité cytotoxique des composés de l'invention a été évaluée par des essais in vitro. Ces essais consistent à ajouter des concentrations croissantes du composé à tester à une culture cellulaire de la lignée tumorale leucémie L 1210 en phase exponentielle de croissance. Les cellules sont incubées à 37°C dans une étuve à CO₂ et comptées toutes les 24 heures. Le calcul de l'ID₅₀ (concentration du produit exprimée en micromole 1⁻¹ qui inhibe la prolifération cellulaire à 50 p. 100) est effectuée après 48 heures de contact. Ainsi déterminées les ID₅₀ des composés de l'invention sont rassemblées dans le tableau ci-après.

leucémie P 388 = assay: animal or person; type: in vivo, souris hybrides CDF 1
Text: (§1) L'activité antitumorale a été testée in vivo sur différentes tumeurs selon le protocole général suivant:
(§2) Toutes les souris mâles ou femelles sont inoculées par voie intrapéritonéale au jour Jo avec une quantité déterminée de cellules tumorales viables, variable selon la tumeur.
(§3) Elles sont ensuite réparties en différents lots. Chaque lot correspondant aux animaux traités par le produit à tester à une dose déterminée est composé de 10 souris. Dans ce cas, le produit à tester est dissous dans l'eau distillée et il est administré, pendant n jours (J₁-Jn) variables selon le protocole choisi, par voie intrapéritonéale à raison de 0,1 ml par 10 g de poids des souris traitées, les doses du produit administré étant précisées dans les tableaux ci-dessous.
(§4) Le lot "contrôle négatif", correspondant aux animaux qui ne sont pas traités par un produit, comprend 2 √N animaux, N étant égal au nombre total de souris traitées par un produit.
(§5) Enfin, tous les essais sont conduits parallèlement à l'étude d'un lot appelé "contrôle positif" de 10 animaux qui est traité par une molécule active, variable selon le protocole choisi, dans les mêmes conditions que les lots traités par le produit à tester, afin de valider l'essai.
(§6) L'activité antitumorale est évaluée en considé-rant l'augmentation du temps de survie des animaux traités par rapport à celui des animaux du lot "contrôle négatif" selon la formule : [formula]
(§7) Un composé est considéré comme étant actif lorsque la valeur du rapport T/C est égale ou supérieure à 125 % selon le protocole retenu. Il est toxique lorsque cette valeur est égale ou inférieure à 85 %. Le produit est également considéré comme toxique lorsque la variation pondérale, exprimée en grammes et calculée par la formule : Poids moyen du lot mesuré au jour 5 -poids moyen du même lot au jour 1 est égale ou inférieure à - 4 g.
a) Test de la leucémie P 388 (GERAN et al., Cancer Chemother, 1972, 2, 07-57).
Les essais sont effectués avec des souris hybrides CDF 1 inoculées par voie intrapéritonéale avec 10⁶ cellules leucémiques de la lignée P 388. Le composé à tester est administré pendant 5 jours (J1-J5). Le contrôle positif du test est le 5-fluorouracile qui est administré dans les mêmes conditions. Le nombre d'animaux survivants est évalué au jour J 40. Un composé est considéré comme étant actif lorsque le rapport T/C est supérieur à 127 %.

leucémie L 1210 = assay: In vivo antitumour activity, L 1210 leukemia test; parameters: species or system souris hybrides CDF₁; conditions: for Nombre de survivants: survivors at J 30
Text: as §1, §2, §3, §4, §5, §6, §7
b) Test de la leucémie L 1210 (GERAN et al., Cancer Chemother, 1972, 2, 07-57).
Les essais sont effectués avec des souris hybrides CDF₁ inoculées avec 10⁵ cellules leucémiques de la lignée L 1210. Le composé à tester est administré pendant 5 jours (J₁-J₅).Le contrôle positif du test est le 5-fluorouracile administré dans les mêmes conditions. Le nombre d'animaux survivants est évalué au jour J 30. Un composé est considéré comme étant actif lorsque le rapport T/C est supérieur ou égal à 125 %.

mélanome B 16 = assay: In vivo antitumour activity, B 16 melanoma test; parameters: species or system souris hybrides BDF₁; conditions: B 16 melanoma; for Nombre de survivants: survivors at J 60
Text: as §1, §2, §3, §4, §5, §6
Le produit est également considéré comme toxique lorsque la variation pondérale, exprimée en grammes et calculée par la formule : Poids moyen du lot mesuré au jour 5 -poids moyen du même lot au jour 1 est égale ou inférieure à - 4 g.
Les essais sont effectués avec des souris hybrides BDF₁ inoculées avec 0,5 ml d'un homogénat de mélanome B 16 réalisé à partir de 1 g de tumeur dans 10 ml de sérum physiologique. Le composé à tester est administré pendant 9 jours (J₁-J₉).Le contrôle positif du test est le Cis-Platine administré dans les mêmes conditions. Le nombre d'animaux survivants est évalué au jour J 60.

[3] = L 1210, CDF₁ mice, 5 mg/kg i.p. J1-J5
[4] = L 1210, CDF₁ mice, 10 mg/kg i.p. J1-J5
[5] = L 1210, CDF₁ mice, 20 mg/kg i.p. J1-J5
[6] = L 1210, CDF₁ mice, 30 mg/kg i.p. J1-J5
[7] = L 1210, CDF₁ mice, 1,25 mg/kg i.p. J1-J5
[8] = L 1210, CDF₁ mice, 2,5 mg/kg i.p. J1-J5
[9] = L 1210, CDF₁ mice, 7,5 mg/kg i.p. J1-J5
[10] = BDF₁ mice, 0,625 mg/kg i.p. J1-J9
[11] = BDF₁ mice, 1,25 mg/kg i.p. J1-J9
[12] = BDF₁ mice, 2,5 mg/kg i.p. J1-J9

For `CCN(CC)CCCNc1nc2ccccc2c2[nH]c3ccc(O)cc3c12` [Dérivé N°11, (diéthylamino-3 propylamino)-6 hydroxy-8 11-H indolo[3,2-c]quinoléine], the “mortalité évaluée au septième jour après l'administration” value [1] was “aucune mortalité”, the IC50 [2] was 130 nM and the response vs control in vivo at 5 mg/kg (leucémie P 388; Mus musculus, P388, ip, P 388, CDF 1 mice, 5 mg/kg i.p. J1-J5, read-out: T/C %) was 154%. For the same compound, the response vs control in vivo at 1.25 mg/kg (leucémie P 388; Mus musculus, P388, ip, P 388, CDF 1 mice, 1,25 mg/kg i.p. J1-J5, read-out: T/C %) was 142%, the response vs control in vivo at 2.5 mg/kg (leucémie P 388; Mus musculus, P388, ip, P 388, CDF 1 mice, 2,5 mg/kg i.p. J1-J5, read-out: T/C %) was 152% and the response vs control in vivo at 15 mg/kg (leucémie P 388; Mus musculus, P388, ip, P 388, CDF 1 mice, 15,0 mg/kg i.p. J1-J5, read-out: T/C %) was 146%. The “Variation pondérale en g” value (leucémie P 388; in vivo, ip, 5 mg/kg) was “+ 0,6 g”, the “Jour médian de survie” value (leucémie L 1210; [3]) was 14,25 and the T/C % (leucémie L 1210; [3]) was 160%. The Nombre de survivants (leucémie L 1210; [3]) was 0, the “Jour médian de survie” value (leucémie L 1210; [4]) was 12,25 and the T/C % (leucémie L 1210; [4]) was 138%. For the same compound, the Nombre de survivants (leucémie L 1210; [4]) was 0, the “Jour médian de survie” value (leucémie L 1210; [5]) was 11,7 and the T/C % (leucémie L 1210; [5]) was 131%. For the same compound, the Nombre de survivants (leucémie L 1210; [5]) was 0, the “Jour médian de survie” value (leucémie L 1210; [6]) was 8,3 and the T/C % (leucémie L 1210; [6]) was 93%. The Nombre de survivants (leucémie L 1210; [6]) was 0, the “Jour médian de survie” value (leucémie L 1210; [7]) was 10,9 and the T/C % (leucémie L 1210; [7]) was 122%. The Nombre de survivants (leucémie L 1210; [7]) was 0, the “Jour médian de survie” value (leucémie L 1210; [8]) was 12,75 and the T/C % (leucémie L 1210; [8]) was 143%. The Nombre de survivants (leucémie L 1210; [8]) was 0, the “Jour médian de survie” value (leucémie L 1210; [9]) was 12,3 and the T/C % (leucémie L 1210; [9]) was 138%. The Nombre de survivants (leucémie L 1210; [9]) was 0, the “Jour médian de survie” value (mélanome B 16; BDF₁ mice, 5 mg/kg i.p. J1-J9) was 31 and the T/C % (mélanome B 16; BDF₁ mice, 5 mg/kg i.p. J1-J9) was 132%. For the same compound, the Nombre de survivants (mélanome B 16; BDF₁ mice, 5 mg/kg i.p. J1-J9) was 0, the “Jour médian de survie” value (mélanome B 16; [10]) was 29 and the T/C % (mélanome B 16; [10]) was 123%. For the same compound, the Nombre de survivants (mélanome B 16; [10]) was 0, the “Jour médian de survie” value (mélanome B 16; [11]) was 40 and the T/C % (mélanome B 16; [11]) was 170%. The Nombre de survivants (mélanome B 16; [11]) was 1, the “Jour médian de survie” value (mélanome B 16; [12]) was 38 and the T/C % (mélanome B 16; [12]) was 162%. For the same compound, the Nombre de survivants (mélanome B 16; [12]) was 2.
